The test system of assay [1] is LPS-induced plasma IL-6 production. Nature of the assay: LPS-induced plasma cytokine production in mouse, IL-6. The assay is classed as in vivo, Balb/c mice. The conditions noted are these: oral 1 h before LPS 0.4 mg/kg i.p. As to the method: Alternately, the compound is screened for its ability to inhibit the LPS-induced cytokine production in rat plasma according to the method reported in the literature (Ziegelbauer K, Gantner F, Lukacs N W, et al. Br J. Pharmacol. 2005,145(2):178-92). Briefly, Lewis rats (male, body weight 140 g-180 g) are used in the experiments. Animals (8/group) are given 1 to 100 mg/kg of the testing compound (suspension in 35% solutol & 60% PEG400 & 5% PG) or vehicle by oral gavage at 1 h prior to intraperitoneal administration of LPS 0.4 mg/kg. Ninety minutes after the intraperitoneal administration of LPS, blood is collected in heparin anticoagulated tubes to measure TNFα using R&D System ELISA Kit based on the general Kit protocols. The plasma sample is diluted 100 fold with the dilution buffer and 50 μL of diluted sample is used in each measurement. The plate is read on a SPECTRAMAX® M2e Plus Plate Reader and TNFα levels are analyzed based on the standard curve. The drug levels in plasma are measured with LC-MS-MS. […] Alternately, the compound is screened for its ability to inhibit the LPS-induced cytokine production in mouse plasma. Balb/c mice (female, body weight 18-20 g) are used in the experiments. […] The plate is read on a SPECTRMAX® M2e Plus Plate Reader and the data is analyzed using a standard curve.

Assay [2] concerns OVA-induced airway inflammation. Nature of the assay: OVA-induced pulmonary inflammation in Brown-Norway rats. The assay is classed as in vivo. The conditions noted are these: Rattus norvegicus, 480 h; BN rats, 0.3 to 30 mg/kg oral bid, day 20 and 21; read-out: ED50, increase of total cells and eosinophiles in BAL fluids. The method, then:
To evaluate the effects of IKKβ inhibitors on antigen-driven airway inflammation in vivo, the compound is also tested in OVA-induced pulmonary inflammation model in rats essentially as described in a method reported in the literature (Yamamoto N, Takeshita K, Shichijo M, Kokubo T, Sato M, Nakashima K, Ishimori M, Nagai H, Li Y F, Yura T, Bacon K B. J Pharm. Exp Ther. 2003; 306(3):1174-81). Briefly, male BN rats weighing from 240 to 260 g are sensitized by intraperitoneal injection of 1 mL of saline containing 1 mg of OVA and 13 mg of aluminum hydroxide on days 1, 2 and 3. Rats serving as normal control received 1 mL of saline instead of OVA. The test compound at doses of 0.3, 1, 3 and 30 mg/kg (bid) is orally administered to rats on day 20 and 21. On day 21 rats are challenged with 1% OVA for 15 minutes with Buxco Mass Dosing System. On day 22, rats are anesthetized with 1% Pentobarbital Sodium. The thoracic and abdominal cavities are opened. Plasma is collected from centrifuged specimens. The trachea is dissected and transected. Through the insertion of an 18-gauge catheter into the trachea, the lungs are lavaged with a total of 15 mL of sterile PBS, and then placed into a specimen container. Cell-free BAL supernatants are obtained by centrifugation of BAL fluids. All serum and BAL supernatants are stored at −80° C. until use. […]

The next assay relates to DNBS-induced colitis. Nature of the assay: DNBS-induced colitis in rat. The assay is classed as in vivo, Wistar rats. The conditions noted are these: 3, 10, 30 and 60 mg/kg oral, six days. The method, then: A compound is tested in DNBS-induced colitis model in rat essentially as described in a method reported in the literature (Gut. 2002; 50(3):440-1). Briefly, Wistar rats are used in the experiments. Following the induction of distal colitis by intra-colonic instillation of DNBS, the test compound at doses of 3, 10, 30, 60 mg/kg (bid) is administered to rats orally for six days. The negative control group is treated with the vehicle alone without DNBS instillation. The vehicle-control group rats are DNBS-induced and treated with vehicle. In the positive control group, sulfasalazine is orally administered to the rats at 300 mg/kg daily for six consecutive days. Animals are euthanized 24 h after the final treatment. Colon-to-body weight ratio and colonic damage scores are calculated for each animal. Vehicle treatment of rats results in a progressive worsening of clinical symptoms, achieving a maximum colonic damage score of 6.1±0.6 and colon-to-body weight ratio-colon length of 0.96±0.10 on day 7 after instillation. In this DNBS-induced inflammatory bowel disease model, rats treated with Example 2 at doses of 3, 10, 30 and 60 mg/kg show a marked reduction in colonic damage scores, colon-to-body weight-to-colon length ratio with more than 30% reduction.

For assay [3], the system named is SKOV-3x-FF-luci human ovarian cancer xenograft. The assay is described as follows: Antitumor effect in SKOV-3x-FF-luci xenograft with vincristine (VCR). The assay is classed as in vivo, Balb/c nu/nu mice. As to the method:
In order to expand the anti-tumor spectrum, more combination testing is explored. Based on in vitro synergistic effect of Example 1 and VCR, the compound is tested for its anti-tumor effects in SKOV-3x-FF-luci xenograft in the presence/absence of VCR. The SKOV-3x-FF-luci human ovarian cancer line (ATCC) is cultured in McCoy's 5a medium containing 10% FCS. Female Balb/c nu/nu mice (6-7 weeks old) are peritoneally injected with 0.2 mL of cell suspension containing 2×10^6 cells. Mice are divided into nine groups six days after cell implantation. The test compound is orally administered twice a day at 60 mg/kg for 20 consecutive days or at 90 mg/kg with a 2 days on and 5 days off dosing schedule. VCR at 1 or 0.3 mg/kg is administered via tail vein injection, once a week. In the combination group, VCR is given 1 h after the administration of the test compound. Mice from the control group are administered with the oral vehicle (10% Acacia at pH2.1) and intraperitoneally injected with saline. At the end of the treatment, all mice are euthanized with CO2 and tumors in the peritoneal cavity, diaphragmatic muscle, mesenterium, liver, spleen, and ovaries are harvested with surgery scissors and weighted. […] In the combination group, tumor growth is inhibited by 76% and 74%. Compared with monotherapy, statistical significance is found between combination and monotherapy.

Where a name gives a salt, the structure may show the parent alone.

Data on two compounds can be found in US8501166B2, “Pyrimidinyl indole compounds” (Hutchison Medipharma Limited, priority 2010, dated 2013).

By ED50 is commonly meant the dose that gives a 50% effect, or the effect in half of the subjects. In the case of `Cl.O=C(NC1CC1)c1cccc2[nH]c(-c3nc(N[C@@H]4CCC[C@H]4O)ncc3Cl)cc12` [Example 2, 2-{5-Chloro-2-[(1R,2R)-2-hydroxycyclopentylamino]pyrimidin-4-yl}-N-cyclopropyl-1H-indole-4-carboxamide hydrochloride], the ED50 in assay [1] was 15.1 mg/kg; in assay [2], 0.49 mg/kg. Besides, the “reduction in colonic damage scores, colon-to-body weight-to-colon length ratio” value in the assay on DNBS-induced colitis was “more than 30%”.

`O=C(NC1CC1)c1cccc2[nH]c(-c3nc(N[C@@H]4CCC[C@@H]4O)ncc3Cl)cc12` [Example 1, 2-{5-Chloro-2-[(1R,2S)-2-hydroxycyclopentylamino]pyrimidin-4-yl}-N-cyclopropyl-1H-indole-4-carboxamide hydrochloride]: the tumor growth inhibition in assay [3] (Example 1 alone 60 mg/kg oral twice a day, 20 days) worked out at 42%; in assay [3] (Example 1 alone 90 mg/kg, 2 days on and 5 days off), 36%; in assay [3] (combination group: Example 1 60 mg/kg + VCR), 76%; in assay [3] (combination group: Example 1 90 mg/kg + VCR) it was 74%.
